Measured values published in patent US20240132431A1, “METHOD FOR ALKYLATING ACIDIC FUNCTIONAL GROUP” (Chugai Seiyaku Kabushiki Kaisha, priority 2021, published 2024).

Target: T1, Bcl-2 protein (Recombinant Human Bcl-2 Protein) (Homo sapiens, UniProt P10415)
T1 construct: purchased Novus NBP2-34889
Experiment: Binding evaluation of mixture library compounds to Bcl-2 using AS-MS (affinity selection mass spectrometry)
Details: AS-MS, mixture library, Bcl-2, ASMS Ratio(%)=(A−C)/B×100; for ASMS ratio (%) n = 1: replicate n = 1; for ASMS ratio (%) n = 2: replicate n = 2
Method in brief: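 Readout is ASMS Ratio (%), (A−C)/B×100, from reversed-phase LC/MS of SEC-passed extracts, with protein-free unfiltered standard (B) and protein-free SEC blank (C). Recombinant human Bcl-2 at 20 μM final met ~1200 pooled compounds at […] each for 1 h, 23° C., dark, in Tris-HCl pH 7.4 buffer.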

T1 sequence (P10415 whole entry): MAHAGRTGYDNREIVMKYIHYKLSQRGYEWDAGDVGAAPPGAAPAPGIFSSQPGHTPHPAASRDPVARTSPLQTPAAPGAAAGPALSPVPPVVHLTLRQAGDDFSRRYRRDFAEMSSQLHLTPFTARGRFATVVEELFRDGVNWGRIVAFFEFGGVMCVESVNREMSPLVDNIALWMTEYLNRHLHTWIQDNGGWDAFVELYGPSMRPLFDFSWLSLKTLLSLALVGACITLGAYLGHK

Structure (SMILES) | ASMS ratio (%) n = 1 | ASMS ratio (%) n = 2
CCOc1cncc(-c2cc(CN3CCN(c4ccc(C(=O)N(CC)CC)cc4)CC3)cc(C(F)(F)F)c2)c1 [B4J062-01, 4-[4-[[3-(5-Ethoxypyridin-3-yl)-5-(trifluoromethyl)phenyl]methyl]piperazin-1-yl]-N,N-diethylbenzamide] | 0.0% | 0.0%
CCOc1cccc(-c2cc(CN3CCN(c4ccc(C(=O)N(CC)CC)cc4)CC3)cc(OC(F)(F)F)c2)c1 [B4J063-01, 4-[4-[[3-(3-Ethoxyphenyl)-5-(trifluoromethoxy)phenyl]methyl]piperazin-1-yl]-N,N-diethylbenzamide] | 4.5% | 0.1%
CCOc1cncc(-c2cc(CN3CCN(c4ccc(C(=O)N(CC)CC)cc4)CC3)cc(OC(F)(F)F)c2)c1 [B4J064-01, 4-[4-[[3-(5-Ethoxypyridin-3-yl)-5-(trifluoromethoxy)phenyl]methyl]piperazin-1-yl]-N,N-diethylbenzamide] | 1.6% | 0.0%
CCOc1cccc(-c2ccc(CN3CCN(c4ccc(C(=O)N(CC)CC)cc4)CC3)c3ccccc23)c1 [B4J065-01, 4-[4-[[4-(3-Ethoxyphenyl)naphthalen-1-yl]methyl]piperazin-1-yl]-N,N-diethylbenzamide] | 0.0% | 0.0%
CCOc1cncc(-c2ccc(CN3CCN(c4ccc(C(=O)N(CC)CC)cc4)CC3)c3ccccc23)c1 [B4J066-01, 4-[4-[[4-(5-Ethoxypyridin-3-yl)naphthalen-1-yl]methyl]piperazin-1-yl]-N,N-diethylbenzamide] | 0.0% | −1.5%
CCOc1cccc(-c2csc(CN3CCN(c4ccc(C(=O)N(CC)CC)cc4)CC3)c2)c1 [B4J067-01, 4-[4-[[4-(3-Ethoxyphenyl)thiophen-2-yl]methyl]piperazin-1-yl]-N,N-diethylbenzamide] | −11.0% | −5.5%
CCOc1cncc(-c2csc(CN3CCN(c4ccc(C(=O)N(CC)CC)cc4)CC3)c2)c1 [B4J068-01, 4-[4-[[4-(5-Ethoxypyridin-3-yl)thiophen-2-yl]methyl]piperazin-1-yl]-N,N-diethylbenzamide] | 0.7% | 0.0%
CCOc1cccc(C#Cc2ccccc2CN2CCN(c3ccc(C(=O)N(CC)CC)cc3)CC2)c1 [B4J069-01, 4-[4-[[2-[2-(3-Ethoxyphenyl)ethynyl]phenyl]methyl]piperazin-1-yl]-N,N-diethylbenzamide] | 1.8% | −0.8%
CCOc1cncc(C#Cc2ccccc2CN2CCN(c3ccc(C(=O)N(CC)CC)cc3)CC2)c1 [B4J070-01] | 0.0% | 0.0%
CCOc1cccc(-c2ccccc2CN2CCN(c3ccc(C(=O)N(CC)CC)nn3)CC2)c1 [B4J071-01] | 0.4% | −0.5%
CCOc1cncc(-c2ccccc2CN2CCN(c3ccc(C(=O)N(CC)CC)nn3)CC2)c1 [B4J072-01, 6-[4-[[2-(5-Ethoxypyridin-3-yl)phenyl]methyl]piperazin-1-yl]-N,N-diethylpyridazine-3-carboxamide] | −1.6% | 0.9%
CCOc1cccc(-c2ccc(CN3CCN(c4ccc(C(=O)N(CC)CC)nn4)CC3)cc2C)c1 [B4J073-01, 6-[4-[[4-(3-Ethoxyphenyl)-3-methylphenyl]methyl]piperazin-1-yl]-N,N-diethylpyridazine-3-carboxamide] | 2.1% | 0.0%
